Measured values reported in patent US6479531B1, “Gastrin and cholecystokinin receptor ligands” (James Black Foundation Limited, priority 1998, dated 2002).

How the values were obtained:
CCKB receptor = target: T1, CCKB receptor (Mus musculus, UniProt P56481); test: CCKB receptor radioligand binding assay in mouse cortical membranes; conditions: [125I]-CCK8(S) 200 pM, 150 min at 21±3°; for Ki: read-out: CCKB pKi (converted)
T1 construct: The whole brains from male mice (CD1 22-25 g; Charles River) were removed; from tissue; host or cells: cerebral cortex membranes of male CD1 mice
T1 sequence (P56481 1-453): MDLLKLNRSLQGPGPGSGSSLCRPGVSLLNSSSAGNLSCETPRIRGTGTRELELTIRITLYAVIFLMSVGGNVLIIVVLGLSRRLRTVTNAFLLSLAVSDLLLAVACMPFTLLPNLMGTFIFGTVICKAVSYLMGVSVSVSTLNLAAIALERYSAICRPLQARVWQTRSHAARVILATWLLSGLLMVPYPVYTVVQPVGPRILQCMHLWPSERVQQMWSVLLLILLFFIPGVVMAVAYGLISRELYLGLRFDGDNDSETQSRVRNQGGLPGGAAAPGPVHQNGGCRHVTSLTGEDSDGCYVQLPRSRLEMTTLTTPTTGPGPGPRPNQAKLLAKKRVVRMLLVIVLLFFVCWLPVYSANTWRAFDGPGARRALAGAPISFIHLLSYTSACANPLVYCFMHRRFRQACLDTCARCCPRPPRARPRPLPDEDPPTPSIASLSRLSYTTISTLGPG
Outline: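 Bound radioactivity was gamma-counted after rapid GF/B filtration and cold 50 mM Tris-HCl (pH 7.4) washes. The tissue was cerebral cortex from male CD1 mice, prepared as twice-centrifuged membranes in pH 7.2 HEPES/NaCl/KCl/MgCl2/EDTA buffer with bacitracin at 20 mg/ml original wet weight.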

gastrin receptor = target: T2, gastrin receptor (Rattus norvegicus, UniProt P30553); test: gastrin antagonist activity in immature rat stomach assay (pentagastrin dose-response, acid secretion); conditions: isolated immature rat stomach, cumulative pentagastrin dose-response curves; for Kb: read-out: Gastrin pKb (converted)
T2 construct: The stomach was excised and flushed with ca. 1 ml of unbuffered physiological saline solution; from tissue; host or cells: isolated whole stomach of immature rats (ca. 21 days old)
T2 sequence (P30553 1-452): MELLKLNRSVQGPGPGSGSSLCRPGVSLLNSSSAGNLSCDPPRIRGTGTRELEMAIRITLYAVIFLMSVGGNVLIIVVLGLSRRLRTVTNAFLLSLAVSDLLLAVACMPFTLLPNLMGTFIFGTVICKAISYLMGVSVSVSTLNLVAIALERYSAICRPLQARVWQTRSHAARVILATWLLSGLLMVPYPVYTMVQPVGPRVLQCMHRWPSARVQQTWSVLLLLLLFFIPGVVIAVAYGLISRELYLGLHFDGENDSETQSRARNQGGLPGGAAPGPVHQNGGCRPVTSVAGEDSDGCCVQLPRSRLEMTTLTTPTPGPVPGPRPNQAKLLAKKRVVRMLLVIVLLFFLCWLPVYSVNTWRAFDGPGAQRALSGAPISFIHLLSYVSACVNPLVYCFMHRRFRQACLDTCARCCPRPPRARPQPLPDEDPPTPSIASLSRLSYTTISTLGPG
Outline: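 Isolated, lumen-perfused stomach from immature rats (33-50 g, ca. 21 days) in a 37° organ bath with 3×10^−8 M 5-methylfurmethide, gassed 95% O2/5% CO2. Compound added serosally after 120 min stabilisation; cumulative pentagastrin dose-response curves begun 60 min later, acid secretion followed by perfusate pH.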

| Compound | Ki (CCKB receptor) | Kb (gastrin receptor) | CCKB pKi (CCKB receptor) | Gastrin pKb (gastrin receptor) |
| --- | --- | --- | --- | --- |
| O=C(O)c1cccc(NC(=O)c2nc(C3CC4C=CC3C4)[nH]c2CCC23CC4CC(CC(C4)C2)C3)c1 (racemic) [Example 116, (±)-endo-3-{[5-(2-Adamantan-1-yl-ethyl)-2-bicyclo[2.2.1]hept-5-ene-2-yl-1H-imidazole-4-carbonyl]-amino}-benzoic Acid] | 13.5 nM | 2.14 nM | – | – |
| O=C(O)c1cc(NC(=O)c2nc(C3CCCCC3)[nH]c2CCC23CC4CC(CC(C4)C2)C3)ccc1F [Example 254, 5-{[5-(2-Adamantan-1-yl-ethyl)-2-cyclohexyl-1H-imidazole-4-carbonyl]-amino}-2-fluoro-benzoic Acid] | 12.6 nM | 11.7 nM | – | – |
| CC1(C)C2CC[C@]1(C)C(c1nc(C(=O)Nc3cccc(C(=O)O)c3)c(CCC34CC5CC(CC(C5)C3)C4)[nH]1)C2 (mixture of isomers) [Example 205, 3-{[5-(2-Adamantan-1-yl-ethyl)-2-[(1R,2RS)-1,7,7-trimethyl-bicyclo[2.2.1]hept-2-yl]-1H-imidazole-4-carbonyl]-amino}-benzoic Acid] | 47.9 nM | 8.32 nM | – | – |
| O=C(O)c1cccc(NC(=O)c2nc(-c3cccnc3)[nH]c2CCC23CC4CC(CC(C4)C2)C3)c1 [Example 177, 3-{[5-(2-Adamantan-1-yl-ethyl)-2-pyridine-3-yl-1H-imidazole-4-carbonyl]-amino}-benzoic Acid] | 603 nM | 151 nM | – | – |
| Cc1ccccc1-c1nc(NC(=O)Nc2cccc(C(=O)O)c2)c(CCC23CC4CC(CC(C4)C2)C3)[nH]1 [Example 75, 3-{3-[5-(2-Adamantan-1-yl-ethyl)-2-o-tolyl-1H-imidazol-4-yl]-ureido}-benzoic Acid] | 200 nM | 263 nM | – | – |
| O=C(O)c1cccc(NC(=O)c2nc(C3CC4CCC3C4)[nH]c2CCC23CC4CC(CC(C4)C2)C3)c1 (racemic) [Example 115, (±)-exo-3-{[5-(2-Adamantan-1-yl-ethyl)-2-bicyclo[2.2.1]hept-2-yl-1H-imidazole-4-carbonyl]-amino}-benzoic Acid] | 25.7 nM | 6.31 nM | – | – |
| Cc1ccccc1-c1nc(C(=O)Nc2cccc(C(=O)O)c2)c(CCc2ccccc2)[nH]1 [Example 87, 3-[(5-Phenethyl-2-o-tolyl-1H-imidazole-4-carbonyl)-amino]-benzoic Acid] | 2690 nM | 1170 nM | – | – |
| Cc1cccc(C)c1-c1nc(C(=O)Nc2cccc(C(=O)O)c2)c(CCC23CC4CC(CC(C4)C2)C3)[nH]1 [Example 65, 3-{[5-(2-Adamantan-1-yl-ethyl)-2-(2,6-dimethyl-phenyl)-1H-imidazole-4-carbonyl]-amino}-benzoic Acid] | 56.2 nM | 100 nM | – | – |
| CC1(C)C2CCC(c3nc(C(=O)Nc4cccc(C(=O)O)c4)c(CCC45CC6CC(CC(C6)C4)C5)[nH]3)C1C2 (centres unmarked) [Example 190, 3-{[5-(2-Adamantan-1-yl-ethyl)-2-(6,6-dimethyl-bicyclo[3.1.1]hept-2-yl)-1H-imidazole-4-carbonyl]-amino}-benzoic Acid] | 174 nM | 4.17 nM | – | – |
| CC(C)C1CCC(c2nc(C(=O)Nc3cccc(C(=O)O)c3)c(CCC34CC5CC(CC(C5)C3)C4)[nH]2)CC1 (centres unmarked) [Example 194, 3-{[5-(2-Adamantan-1-yl-ethyl)-2-(4-isopropyl-cyclohexyl)-1H-imidazole-4-carbonyl]-amino}-benzoic Acid] | 158 nM | 525 nM | – | – |
| Cc1ccc(NC(=O)c2nc(C3CCCO3)[nH]c2CCC23CC4CC(CC(C4)C2)C3)cc1C(=O)O (centres unmarked) [Example 188, 5-{[5-(2-Adamantan-1-yl-ethyl)-2-(tetrahydro-furan-2-yl)-1H-imidazole-4-carbonyl]-amino}-2-methyl-benzoic Acid] | 25.7 nM | 7.76 nM | – | – |
| O=C(O)c1cccc(NC(=O)c2nc(-c3c(F)cccc3F)[nH]c2CCC23CC4CC(CC(C4)C2)C3)c1 [Example 61, 3-{[5-(2-Adamantan-1-yl-ethyl)-2-(2,6-difluoro-phenyl)-1H-imidazole-4-carbonyl]-amino}-benzoic Acid] | 148 nM | 31.6 nM | – | – |
| Cc1ccc(NC(=O)c2nc(C3(C)CCCCC3)[nH]c2COC23CC4CC(CC(C4)C2)C3)cc1C(=O)O [Example 220, 5-([5-(Adamantan-1-yloxymethyl)-2-(1-methyl-cyclohexyl)-1H-imidazole-4-carbonyl]-amino}-2-methyl-benzoic Acid] | 2.95 nM | 0.468 nM | – | – |
| O=C(O)c1cc(NC(=O)c2[nH]c(-c3ccccc3)nc2CCC23CC4CC(CC(C4)C2)C3)cc(C(=O)O)c1 [Example 46, 5-{[5-(2-Adamantan-1-yl-ethyl)-2-phenyl-1H-imidazole-4-carbonyl]-amino}-isophthalic Acid] | 646 nM | 2510 nM | – | – |
| Cc1ccc(-c2nc(C(=O)Nc3cccc(C(=O)O)c3)c(CCC34CC5CC(CC(C5)C3)C4)[nH]2)c(C)c1 [Example 67, 3-{[5-(2-Adamantan-1-yl-ethyl)-2-(2,4-dimethyl-phenyl)-1H-imidazole-4-carbonyl]-amino}-benzoic Acid] | 83.2 nM | 10 nM | – | – |
| Cc1ccc(NC(=O)c2nc(-c3ccccc3C)[nH]c2CCC23CC4CC(CC(C4)C2)C3)cc1C(=O)O [Example 106, 5-{[5-(2-Adamantan-1-yl-ethyl)-2-o-tolyl-1H-imidazole-4-carbonyl]-amino}-2-methyl-benzoic Acid] | 5.89 nM | 6.31 nM | – | – |
| O=C(O)c1cc(NC(=O)c2[nH]c(-c3ccccc3)nc2CC2CCCCCC2)cc(C(=O)O)c1 [Example 24, 5-[(5-Cycloheptylmethyl-2-phenyl-1H-imidazole-4-carbonyl)-amino]-isophthalic Acid] | 1000 nM | 479 nM | – | – |
| O=C(O)c1cccc(NC(=O)c2nc(-c3ccccn3)[nH]c2CCC23CC4CC(CC(C4)C2)C3)c1 [Example 178, 3-{[5-(2-Adamantan-1-yl-ethyl)-2-pyridine-2-yl-1H-imidazole-4-carbonyl]-amino}-benzoic Acid] | 245 nM | 166 nM | – | – |
| Cc1ccc(NC(=O)c2nc(-c3ccco3)[nH]c2CCC23CC4CC(CC(C4)C2)C3)cc1C(=O)O [Example 187, 5-{[5-(2-Adamantan-1-yl-ethyl)-2-furan-2-yl-1H-imidazole-4-carbonyl]-amino}-2-methyl-benzoic Acid] | 60.3 nM | 75.9 nM | – | – |
| CN1CCC[C@@H]1c1nc(C(=O)Nc2cccc(C(=O)O)c2)c(CCC23CC4CC(CC(C4)C2)C3)[nH]1 [Example 143] | 191 nM | 60.3 nM | – | – |
| 5-[(2-Cycloheptylmethyl--phenyl-1H-pyrrole-3-carbonyl)-amino]-isophthalic Acid [Example 13] | – | – | 6.44 | 6.21 |
| O=C(O)c1cccc(NC(=O)c2nc(C3CCCCC3)[nH]c2CCC2CCCCCC2)c1 [Example 166, 3-{[5-(2-Cycloheptyl-ethyl)-2-cyclohexyl-1H-imidazole-4-carbonyl]-amino}-benzoic Acid] | 135 nM | 12.9 nM | – | – |
| Cc1ccccc1-c1nc(C(=O)Nc2cccc(C(=O)O)c2)c(CC2CCCCCC2)[nH]1 [Example 165, 3-[(5-Cycloheptylmethyl-2-o-tolyl-1H-imidazole-4-carbonyl)-amino]-benzoic Acid] | 1820 nM | 123 nM | – | – |
| O=C(O)c1cccc(NC(=O)c2nc(-c3ccccc3C(F)(F)F)[nH]c2CCC2CCCCCC2)c1 [Example 40, 3-{[5-(2-Cycloheptyl-ethyl)-2-(2-trifluoromethyl-phenyl)-1H-imidazole-4-carbonyl]-amino}-benzoic Acid] | 933 nM | 204 nM | – | – |
| CN(C)c1cccc(-c2nc(C(=O)Nc3cccc(C(=O)O)c3)c(CCC34CC5CC(CC(C5)C3)C4)[nH]2)c1 [Example 71, 3-{[5-(2-Adamantan-1-yl-ethyl)-2-(3-dimethylamino-phenyl)-1H-imidazole-4-carbonyl]-amino}-benzoic Acid] | 186 nM | 794 nM | – | – |
